Holding throughout (test): KINOMEscan (ScanMAX) kinase profiling
Common to all, as to assay type: binding

For assay [1], the target named is T1, panel of 468 kinases (Homo sapiens, UniProt P07947).
T1 construct: purchased KINOMEscan (ScanMAX) service
Particulars: YES; 1 μM; read-out: % control.

The target in assay [2] is T2, panel of 468 kinases (Homo sapiens, UniProt Q86V86).
T2 construct: purchased KINOMEscan (ScanMAX) service
Particulars: PIM3; 1 μM; read-out: % control.

Assay [3] addresses T3, panel of 468 kinases (Homo sapiens, UniProt Q56UN5).
T3 construct: purchased KINOMEscan (ScanMAX) service
T3 sequence (Q56UN5 1-1328): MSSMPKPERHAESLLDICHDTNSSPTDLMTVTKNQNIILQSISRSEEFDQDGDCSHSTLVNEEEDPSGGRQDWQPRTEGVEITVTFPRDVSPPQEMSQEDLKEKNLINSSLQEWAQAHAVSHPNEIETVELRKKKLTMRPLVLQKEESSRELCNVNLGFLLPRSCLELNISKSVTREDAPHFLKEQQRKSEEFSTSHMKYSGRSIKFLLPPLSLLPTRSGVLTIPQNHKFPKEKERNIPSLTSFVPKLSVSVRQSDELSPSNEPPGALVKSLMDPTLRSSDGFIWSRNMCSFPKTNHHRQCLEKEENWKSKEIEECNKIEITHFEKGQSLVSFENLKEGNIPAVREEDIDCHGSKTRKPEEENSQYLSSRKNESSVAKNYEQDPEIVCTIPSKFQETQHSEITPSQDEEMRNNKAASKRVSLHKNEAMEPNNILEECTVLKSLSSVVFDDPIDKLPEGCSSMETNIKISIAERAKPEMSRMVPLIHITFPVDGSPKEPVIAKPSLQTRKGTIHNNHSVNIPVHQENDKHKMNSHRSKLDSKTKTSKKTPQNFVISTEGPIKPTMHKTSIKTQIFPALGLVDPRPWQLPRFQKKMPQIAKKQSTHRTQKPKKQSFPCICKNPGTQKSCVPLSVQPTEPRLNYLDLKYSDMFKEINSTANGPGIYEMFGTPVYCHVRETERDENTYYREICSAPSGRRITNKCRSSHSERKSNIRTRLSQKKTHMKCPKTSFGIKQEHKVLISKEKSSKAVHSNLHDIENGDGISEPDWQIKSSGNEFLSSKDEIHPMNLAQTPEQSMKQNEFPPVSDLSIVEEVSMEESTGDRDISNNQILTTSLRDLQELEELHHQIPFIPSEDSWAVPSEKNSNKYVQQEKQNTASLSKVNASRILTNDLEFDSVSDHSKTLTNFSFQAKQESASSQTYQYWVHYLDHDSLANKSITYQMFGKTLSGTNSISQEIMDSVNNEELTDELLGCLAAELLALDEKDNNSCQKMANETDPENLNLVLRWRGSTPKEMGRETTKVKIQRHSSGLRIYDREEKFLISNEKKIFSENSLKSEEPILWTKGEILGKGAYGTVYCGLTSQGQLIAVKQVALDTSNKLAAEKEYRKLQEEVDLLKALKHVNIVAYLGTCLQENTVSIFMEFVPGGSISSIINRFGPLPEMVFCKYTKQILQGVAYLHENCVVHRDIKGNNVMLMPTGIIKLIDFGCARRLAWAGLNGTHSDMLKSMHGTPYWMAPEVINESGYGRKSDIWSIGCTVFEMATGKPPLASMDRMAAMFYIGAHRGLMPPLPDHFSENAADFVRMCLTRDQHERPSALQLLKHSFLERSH
Particulars: YSK4; 1 μM; read-out: % control.

Assay [4] has as its target T4, panel of 468 kinases (Homo sapiens, UniProt Q8WTQ7).
T4 construct: purchased KINOMEscan (ScanMAX) service
T4 sequence (Q8WTQ7 1-553): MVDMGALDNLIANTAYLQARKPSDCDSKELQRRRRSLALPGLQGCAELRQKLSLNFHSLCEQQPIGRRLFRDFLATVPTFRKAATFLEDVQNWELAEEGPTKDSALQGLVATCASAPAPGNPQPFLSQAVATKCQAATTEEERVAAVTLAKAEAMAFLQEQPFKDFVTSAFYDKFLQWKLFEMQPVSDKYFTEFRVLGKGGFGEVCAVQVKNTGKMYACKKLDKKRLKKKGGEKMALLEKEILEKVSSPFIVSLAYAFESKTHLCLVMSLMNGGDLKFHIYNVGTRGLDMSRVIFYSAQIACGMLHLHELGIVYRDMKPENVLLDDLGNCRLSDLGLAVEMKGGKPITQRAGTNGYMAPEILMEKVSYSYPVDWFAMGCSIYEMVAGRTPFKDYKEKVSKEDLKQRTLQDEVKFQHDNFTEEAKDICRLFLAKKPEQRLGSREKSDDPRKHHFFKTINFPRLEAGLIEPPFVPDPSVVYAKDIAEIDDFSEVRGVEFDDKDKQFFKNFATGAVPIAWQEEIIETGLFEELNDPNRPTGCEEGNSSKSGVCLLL
Particulars: GRK7; 1 μM; read-out: % control.

For assay [5], the target named is T5, panel of 468 kinases (Homo sapiens, UniProt Q96SB4).
T5 construct: purchased KINOMEscan (ScanMAX) service
T5 sequence (Q96SB4 whole entry): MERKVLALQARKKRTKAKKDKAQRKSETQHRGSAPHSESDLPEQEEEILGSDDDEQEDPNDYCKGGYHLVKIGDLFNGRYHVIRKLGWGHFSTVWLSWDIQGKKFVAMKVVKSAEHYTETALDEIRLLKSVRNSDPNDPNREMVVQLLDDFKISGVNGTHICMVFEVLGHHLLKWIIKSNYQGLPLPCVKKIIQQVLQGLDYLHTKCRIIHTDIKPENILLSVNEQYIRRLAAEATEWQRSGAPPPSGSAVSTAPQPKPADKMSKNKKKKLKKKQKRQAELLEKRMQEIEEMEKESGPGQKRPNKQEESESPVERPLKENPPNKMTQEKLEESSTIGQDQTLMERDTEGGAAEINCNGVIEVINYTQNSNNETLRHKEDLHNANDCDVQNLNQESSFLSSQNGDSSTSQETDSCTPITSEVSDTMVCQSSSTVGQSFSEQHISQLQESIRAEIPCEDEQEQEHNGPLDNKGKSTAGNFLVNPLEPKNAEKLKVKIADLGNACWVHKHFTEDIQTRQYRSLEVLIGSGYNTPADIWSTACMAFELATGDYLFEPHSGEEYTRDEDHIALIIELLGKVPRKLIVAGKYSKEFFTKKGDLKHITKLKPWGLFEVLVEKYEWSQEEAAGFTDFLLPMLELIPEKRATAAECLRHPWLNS
The settings on record: SRPK1; 1 μM; read-out: % control.

Assay [6] has as its target T6, panel of 468 kinases (Homo sapiens, UniProt P35968).
T6 construct: purchased KINOMEscan (ScanMAX) service
Particulars: VEGFR2; 1 μM; read-out: % control.

In assay [7] the target is T7, panel of 468 kinases (Homo sapiens, UniProt P78356).
T7 construct: purchased KINOMEscan (ScanMAX) service
T7 sequence (P78356 1-416): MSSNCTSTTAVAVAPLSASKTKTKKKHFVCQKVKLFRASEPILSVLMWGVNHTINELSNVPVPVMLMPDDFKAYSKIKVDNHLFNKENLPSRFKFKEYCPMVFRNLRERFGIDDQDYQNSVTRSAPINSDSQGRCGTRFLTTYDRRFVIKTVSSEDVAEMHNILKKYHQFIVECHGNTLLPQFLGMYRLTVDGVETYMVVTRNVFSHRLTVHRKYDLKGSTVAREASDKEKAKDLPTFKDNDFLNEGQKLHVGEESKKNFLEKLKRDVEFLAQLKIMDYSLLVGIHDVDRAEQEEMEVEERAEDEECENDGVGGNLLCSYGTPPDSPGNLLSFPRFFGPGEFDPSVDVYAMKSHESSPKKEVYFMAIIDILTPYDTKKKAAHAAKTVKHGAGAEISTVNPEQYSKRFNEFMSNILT
The settings on record: PIP5K2B; 1 μM; read-out: % control.

T6 sequence (P35968 20-1356): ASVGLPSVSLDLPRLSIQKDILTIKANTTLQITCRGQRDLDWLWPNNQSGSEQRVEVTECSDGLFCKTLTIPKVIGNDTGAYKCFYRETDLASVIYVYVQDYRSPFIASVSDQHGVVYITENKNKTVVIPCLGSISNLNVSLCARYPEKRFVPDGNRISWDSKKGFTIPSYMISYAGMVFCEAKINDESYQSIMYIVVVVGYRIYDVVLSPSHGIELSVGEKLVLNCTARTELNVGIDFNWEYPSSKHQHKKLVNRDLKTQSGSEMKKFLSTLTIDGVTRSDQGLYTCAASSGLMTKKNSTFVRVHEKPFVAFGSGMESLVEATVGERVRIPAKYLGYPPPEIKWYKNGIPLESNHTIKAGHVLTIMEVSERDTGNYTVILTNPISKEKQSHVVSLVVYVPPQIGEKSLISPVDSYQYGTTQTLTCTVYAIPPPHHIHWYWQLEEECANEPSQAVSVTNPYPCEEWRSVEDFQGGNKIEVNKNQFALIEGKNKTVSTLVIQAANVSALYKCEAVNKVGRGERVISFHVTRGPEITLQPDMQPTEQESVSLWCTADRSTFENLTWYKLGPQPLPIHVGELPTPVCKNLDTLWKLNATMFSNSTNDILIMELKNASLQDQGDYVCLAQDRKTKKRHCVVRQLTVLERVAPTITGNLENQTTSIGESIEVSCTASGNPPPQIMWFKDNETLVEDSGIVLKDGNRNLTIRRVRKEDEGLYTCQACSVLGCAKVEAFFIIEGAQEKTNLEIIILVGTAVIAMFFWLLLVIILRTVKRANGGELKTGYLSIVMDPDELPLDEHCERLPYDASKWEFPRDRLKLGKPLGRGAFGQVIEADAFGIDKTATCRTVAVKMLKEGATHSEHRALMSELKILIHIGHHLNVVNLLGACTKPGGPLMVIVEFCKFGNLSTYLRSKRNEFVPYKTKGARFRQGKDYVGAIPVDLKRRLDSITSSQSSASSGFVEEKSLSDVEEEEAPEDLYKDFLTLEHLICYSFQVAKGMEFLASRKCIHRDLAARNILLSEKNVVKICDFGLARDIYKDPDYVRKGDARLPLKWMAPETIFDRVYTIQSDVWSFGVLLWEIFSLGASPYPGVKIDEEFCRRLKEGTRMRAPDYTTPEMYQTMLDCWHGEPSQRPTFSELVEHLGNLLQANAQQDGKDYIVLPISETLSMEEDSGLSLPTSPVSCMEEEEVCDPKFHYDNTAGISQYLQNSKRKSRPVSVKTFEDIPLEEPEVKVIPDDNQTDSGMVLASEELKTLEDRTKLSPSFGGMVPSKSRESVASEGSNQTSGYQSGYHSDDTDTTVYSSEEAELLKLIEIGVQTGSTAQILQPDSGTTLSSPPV
T1 sequence (P07947 whole entry): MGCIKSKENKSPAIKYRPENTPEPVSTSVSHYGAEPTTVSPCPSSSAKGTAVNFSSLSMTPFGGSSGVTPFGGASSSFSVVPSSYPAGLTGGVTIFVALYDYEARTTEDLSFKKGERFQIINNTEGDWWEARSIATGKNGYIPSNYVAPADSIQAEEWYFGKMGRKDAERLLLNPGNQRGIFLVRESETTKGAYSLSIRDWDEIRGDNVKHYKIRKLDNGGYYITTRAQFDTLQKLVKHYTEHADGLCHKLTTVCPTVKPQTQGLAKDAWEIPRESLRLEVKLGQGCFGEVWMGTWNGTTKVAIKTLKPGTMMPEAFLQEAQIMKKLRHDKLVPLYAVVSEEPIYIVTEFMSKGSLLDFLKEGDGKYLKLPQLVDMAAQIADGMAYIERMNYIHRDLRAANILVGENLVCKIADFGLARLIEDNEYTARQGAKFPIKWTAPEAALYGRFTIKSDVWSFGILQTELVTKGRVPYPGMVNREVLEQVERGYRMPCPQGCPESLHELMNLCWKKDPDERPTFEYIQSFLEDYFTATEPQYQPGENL

As for `CNc1nc(Nc2ccc(S(=O)(=O)N3CCC(N4CCOCC4)CC3)cc2OC)nc2[nH]cc(Cl)c12` [Compound 12, 5-chloro-N2-(2-methoxy-4-((4-morpholinopiperidin-1-yl)sulfonyl)phenyl)-N4-methyl-7H-pyrrolo[2,3-d]pyrimidine-2,4-diamine], the remaining binding at 1 µM amounted to 100% in assay [1]; 100% in assay [2]; 59% in assay [3]; 100% in assay [4]; 96% in assay [5]; 91% in assay [6]. In assay [7], the remaining binding at 1 µM is 100%.
Take `CNc1nc(Nc2ccc(C(=O)N3CCC(N4CCOCC4)CC3)c3c2OCO3)nc2[nH]cc(Cl)c12` [Compound 75, (7-((5-chloro-4-(methylamino)-7H-pyrrolo[2,3-d]pyrimidin-2-yl)amino)benzo[d][1,3]dioxol-4-yl)(4-morpholinopiperidin-1-yl)methanone]: the remaining binding at 1 µM is 100% in assay [1]; 100% in assay [2]; 0.25% in assay [3]; 100% in assay [4]; 53% in assay [5]; 54% in assay [6]. The remaining binding at 1 µM in assay [7] worked out at 97%.
In the case of `CNc1nc(Nc2ccc(P3(=O)CCN(C4CCOCC4)CC3)cc2OC)nc2[nH]cc(Cl)c12` [Compound 77, 4-(4-((5-chloro-4-(methylamino)-7H-pyrrolo[2,3-d]pyrimidin-2-yl)amino)-3-methoxyphenyl)-1-(tetrahydro-2H-pyran-4-yl)-1,4-azaphosphinane 4-oxide], the remaining binding at 1 µM stood at 100% in assay [1]; 100% in assay [2]; 4.2% in assay [3]; 99% in assay [4]; 96% in assay [5]; 91% in assay [6]. In addition, the remaining binding at 1 µM in assay [7] is 100%.

The values are drawn from US12479847B2 (DANA-FARBER CANCER INSTITUTE, INC., priority 2019, dated 2025).
